For one substance, TNFalpha production results are on record in patent US10111967B2, “Complexes of RNA and cationic peptides for transfection and for immunostimulation” (CureVac AG, priority 2007, dated 2018).

For this test, the system named is hPBMC cells. In words: Immunostimulation of hPBMC cells by RNA/peptide complexes, cytokine production (IL-6, TNF-alpha) by ELISA. The conditions noted are these: hPBMCs, 24 h; nona-arginine or mRNA alone (not complexed). In kind it is cell-based, human. On the procedure: 15 μg RNA stabilized luciferase mRNA according to SEQ ID NO: 36 (Luc-RNActive) were mixed in different mass ratios with nona-arginine (Arg9) or poly-L-arginine (Sigma-Aldrich; P4663; 5000-15000 g/mol), thereby forming a complex. Following mass ratios were used as shown exemplarily for ((Arg)9). Poly-L-arginine was used for comparative examples following the same instructions.
HPBMC cells from peripheral blood of healthy donors were isolated using a Ficoll gradient and washed subsequently with 1×PBS (phosphate-buffered saline). The cells were then seeded on 96-well microtiter plates (200×1 03/well). […] The immunostimulatory effect upon the hPBMC cells was measured by detecting the cytokine production (Interleukin-6 and Tumor necrose factor alpha). […] Then, the plate was again washed with 1×PBS, containing 0.05% TWEEN®-20 surfactant, and ABTS (2,2′-azino-bis(3-ethylbenzthiazoline-6-sulfonic acid) was added as a substrate. The amount of cytokine was determined by measuring the absorption at 405 nm (OD405) using a standard curve with recombinant Cytokines (BD Pharmingen, Heidelberg, Germany) with the Sunrise ELISA-Reader from Tecan (Crailsheim, Germany). […]
The effect of R9H3 on immunostimulation was tested in hPBMCs. […] The immunostimulatory effect upon the hPBMC cells was measured by detecting the cytokine production (Interleukin-6 and Tumor necrose factor alpha). […]

Consider “Arg-Arg-Arg-Arg-Arg-Arg-Arg-Arg-Arg (RRRRRRRRR; Synthetic peptide - Exemplary oligopeptide according to formula I) [nona-arginine ((Arg)9) alone]”, for which the TNFalpha production result is recorded as “no significant TNFalpha production”.
